As a reminder, the Kd is the concentration at which binding is half-saturated. Higher therefore signals weaker binding. As a reminder, the IC50 is the concentration at which inhibition is half-maximal. For orientation: MIC means the lowest concentration found to suppress growth. Read a high MIC as weaker potency.

Converted amounts (≈) assume the structure as drawn.

One test concerns the target T1, CaFADS (Corynebacterium ammoniagenes, UniProt Q59263).
T1 construct: made in house; host or cells: Escherichia coli BL21(DE3)
In words: Differential scanning fluorescence (thermal denaturation) binding to CaFADS. The note with it: for Tm shift of CaFADS thermal denaturation: 2 μM CaFADS, compound up to 250 μM; for Kd: from differential scanning fluorescence data fitted to Eq 2, 20 mM PIPES pH 7.0, 10 mM MgCl2, 2% DMSO, n = 3, mean ± SD. The procedure:
Interaction of compounds with CaFADS was evaluated using fluorescence thermal denaturation, on the bases of the shifts in denaturation midpoints of thermal curves of the protein [65]. Denaturations were performed in a Stratagene Agilent Mx3005p qPCR instrument (Santa Clara, US) following SYPR Orange (ThermoFisher Scientific) emission fluorescence (excitation at 492 nm and emission at 610 nm), which greatly increases when this probe binds to protein hydrophobic regions becoming solvent exposed upon thermal unfolding. Solutions containing 2 μM CaFADS with the studied compound in an increasing 5-250 μM concentration range (2% residual final concentration of DMSO) and 5xSYPR Orange in 20 mM PIPES pH 7.0, 10 mM MgCl2, with a 100 μL total volume were dispensed into 96-well microplates (BRAND 96-well plates pure grade™). After an initial 1 min incubation at 25 °C within the equipment, unfolding curves were registered from 25 to 100 °C at 1 °C·min^−1. Control experiments with CaFADS samples with/without DMSO were routinely performed in each microplate. For those compounds shifting midpoint denaturation temperature, Tm, the dissociation constant, Kd, was predicted by fitting the data to the equation [66] ΔTm/Tm=NRTm0/ΔH0ln(1+[L]/Kd), (2) which estimates the extent of the ligand-induced protein stabilization/destabilization. ΔTm=|Tm-Tm0| with Tm0 and Tm being the midpoint denaturation temperatures in the absence and the presence of ligand, respectively, and ΔH0 the unfolding enthalpy of the protein in the absence of ligand.

Another test deals with T2, FMNAT activity of CaFADS (Corynebacterium ammoniagenes, UniProt Q59263).
T2 construct: made in house; host or cells: Escherichia coli BL21(DE3)
T2 sequence (Q59263 whole entry): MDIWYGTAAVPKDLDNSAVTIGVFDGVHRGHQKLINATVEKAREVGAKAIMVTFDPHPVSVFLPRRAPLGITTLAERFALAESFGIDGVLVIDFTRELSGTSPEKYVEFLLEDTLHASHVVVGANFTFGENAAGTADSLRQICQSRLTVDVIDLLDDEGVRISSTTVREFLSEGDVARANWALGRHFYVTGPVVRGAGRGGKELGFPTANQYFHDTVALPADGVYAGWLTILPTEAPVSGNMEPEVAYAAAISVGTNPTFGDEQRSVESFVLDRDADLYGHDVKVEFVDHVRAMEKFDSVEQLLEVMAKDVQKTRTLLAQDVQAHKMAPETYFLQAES
In words: Inhibition of the FMNAT activity of CaFADS. Type of test: biochemical. The settings on record: 25 °C; for FMNAT % Res. act. 250 μM: residual activity at 250 μM of compound. The procedure: (§1) To determine the compound’s ability to inhibit the RFK and/or the FMNAT activities of CaFADS, both enzymatic activities were quantitatively measured in the absence and presence of the compounds following previously described protocols. Reaction mixtures contained 50 μM ATP, 5 μM RF in 20 mM PIPES, pH 7.0, 0.8 mM MgCl2, when assaying the RFK activity, and 50 μM ATP, 10 μM FMN in 20 mM PIPES, pH 7.0, 10 mM MgCl2 when measuring the FMNAT reaction. Each compound was tested at 250 μM (0.5% residual final concentration of DMSO) for each of the two enzymatic reactions. The samples were pre-incubated at 25 °C, the reaction was then initiated by the addition of ∼ 40 nM CaFADS (final concentration) and allowed for 1 min. Finally, the reaction was stopped by boiling the samples for 5 min and the denatured protein was eliminated through centrifugation. The transformation of RF into FMN and FAD (RFK activity) and of FMN into FAD (FMNAT activity) was evaluated through flavins separation by HPLC (Waters), as previously described. All the experiments were performed in triplicate. To evaluate the potency of compounds as inhibitors, we took advantage of the decrease in quantum yield of fluorescence when FMN is transformed into FAD, which allows to follow such transformation in a continuous system. Measurements were carried out using a microplate reader Synergy HT multimode plate reader (Biotek) with BRAND 96-well plates pure Grade. Reaction mixtures contained 5 μM RF or FMN, and 50 μM ATP in 20 mM PIPES, pH 7.0, 10 mM MgCl2, and the inhibitor compound in a 5-250 μM concentration range (2% residual final concentration of DMSO). Reactions were initiated through addition of 0.4 μM CaFADS, being the final reaction volume 100 μL. Flavin fluorescence (excitation at 440 nm and emission at 530 nm) was registered at 25 °C, every 50 s during 15 min. The fluorescence change per time unit (ΔF/Δt) was calculated as the slope of the resulting fluorescence decays recorded between 0 and 6 min (linear decay of the fluorescence). Controls which contained the reaction mixture without the enzyme and without any potential CaFADS inhibitory compound were included in the assay and referred as the 0% and 100% of enzymatic activity, respectively. IC50 was calculated as the concentration of compound required for a 50% inhibition of the enzymatic activity.

In test [1] the target is T3, RFK+FMNAT CaFADS activities (Corynebacterium ammoniagenes, UniProt Q59263).
T3 construct: made in house; host or cells: Escherichia coli BL21(DE3)
T3 sequence (Q59263 whole entry): as above
As to the kind of experiment: Inhibition of the RFK+FMNAT activity of CaFADS. The settings on record: 25 °C; for RFK+FMNAT % Res. act. 250 μM: residual activity at 250 μM of compound. It is filed as biochemical. The procedure:
as §1

A further test concerns C. ammoniagenes. In words: MIC, resazurin broth microdilution. It is filed as cell-based, Corynebacterium ammoniagenes. The note with it: for MIC: C. ammoniagenes. Background: Resazurin is reduced to fluorescent resorufin, in cell work by metabolically active cells.
The subject of the next test is C. glutamicum. In words: MIC, resazurin broth microdilution. The note with it: media BHI. Type of test: cell-based, Corynebacterium glutamicum.
Another test has as its system C. diphteriae. As to the kind of experiment: MIC, resazurin broth microdilution. Type of test: cell-based, Corynebacterium diphteriae.
The test system of the next test is M. tuberculosis. As to the kind of experiment: MIC, resazurin broth microdilution. The note with it: for MIC: M. tuberculosis, media 7H9G-ADC. It is filed as cell-based, Mycobacterium tuberculosis.
The subject of another test is M. smegmatis. In words: MIC, resazurin broth microdilution. It is filed as cell-based, Mycobacterium smegmatis. The note with it: media 7H9G-ADC.
A further test deals with S. pneumoniae. In words: MIC, resazurin broth microdilution. Type of test: cell-based, Streptococcus pneumoniae.
The subject of the next test is E. coli. As to the kind of experiment: MIC, resazurin broth microdilution. Type of test: cell-based, Escherichia coli. The settings on record: media LB.
A further test has as its system L. monocytogenes. In words: MIC, resazurin broth microdilution. It is filed as cell-based, Listeria monocytogenes. The settings on record: media BHI.
In a further test the test system is P. aeruginosa. In words: MIC, resazurin broth microdilution. It is filed as cell-based, Pseudomonas aeruginosa. The settings on record: media MH.
For a further test, the system named is S. thyphimurium. As to the kind of experiment: MIC, resazurin broth microdilution. The note with it: media MH. Type of test: cell-based, Salmonella thyphimurium.
Another test has as its system S. aureus. In words: MIC, resazurin broth microdilution. It is filed as cell-based, Staphylococcus aureus. The settings on record: media MH.
A further test has as its system Mycobacteriumspecies. In words: MIC against Mycobacterium species (S5 Fig legend). Type of test: cell-based.

T1 sequence (Q59263 whole entry): as above

`CC1(C(=O)O)CCC2C(CCC3CC(O)CCC32C)C1C=C1Nc2ccccc2C1=O` (stereo not drawn) [Compound C3, 7-hydroxy-2,4b-dimethyl-1-[(3-oxo-2,3-dihydro-1H-2-indolyliden)methyl]perhydro-2-phenanthrenecarboxylic acid]: the “Tm shift of CaFADS thermal denaturation” value on CaFADS is listed as “shifted it to lower values”. Also, the Kd on CaFADS is 18 ± 8 µM. Also, the IC50 at FMNAT activity of CaFADS (kinetic measurements, 5 μM FMN, 50 μM ATP, 20 mM PIPES pH 7.0, 10 mM MgCl2, 2% DMSO) worked out at 238 ± 7 µM; in test [1] (kinetic measurements, 20 mM PIPES pH 7.0, 10 mM MgCl2, 2% DMSO), 248 ± 3 µM. For the same molecule, the “FMNAT % Res. act. 250 μM” value at FMNAT activity of CaFADS was determined as 48 ± 3%. Moreover, in [1], the “RFK+FMNAT % Res. act. 250 μM” value is 48 ± 5%. The MIC against C. ammoniagenes (media BHI) is recorded as over 64 µM; against C. ammoniagenes (media MH), over 256 µM; in the test with C. ammoniagenes (media MH+DFO), over 256 µM; in the test on C. ammoniagenes (media MH+DIP) it was over 256 µM; against C. ammoniagenes (media MH+DIP+DFO) it was over 256 µM; against C. glutamicum it was over 64 µM. The MIC in the test with C. diphteriae (media BHI) was over 64 µM; against C. diphteriae (media MH), over 256 µM; against M. tuberculosis, 256 µM (≈ 108 µg/mL); with M. smegmatis, over 256 µM; in the test on S. pneumoniae (media BHI), 256 µM (≈ 108 µg/mL); in the test with S. pneumoniae (media MH), 256 µM (≈ 108 µg/mL). The MIC in the test on E. coli is on record as over 64 µM; against L. monocytogenes, over 64 µM; against P. aeruginosa it was over 256 µM; in the test with S. thyphimurium, over 256 µM; in the test on S. aureus it was over 256 µM. For the same molecule, the “MIC (μM) C. ammoniagenes” value in the test with C. ammoniagenes (Table 3) was over 256 µM. Also, the “MIC (μM) M. tuberculosis” value with M. tuberculosis (Table 3) came out at 256 µM (≈ 108 µg/mL). In addition, the “MIC Mycobacterium species” value in the test on Mycobacteriumspecies is recorded as “lower than 256 μM”.

Turning to `Cc1c(N=CN(C(=O)c2ccccc2)c2cccc([N+](=O)[O-])c2C)cccc1[N+](=O)[O-]` [Compound C7, N1-(2-methyl-3-nitrophenyl)-N1-{[(2-methyl-3-nitrophenyl)imino]methyl}benzamide], the “FMNAT % Res. act. 250 μM” value on FMNAT activity of CaFADS is given as over 95%. Besides, the “RFK+FMNAT % Res. act. 250 μM” value in test [1] was determined as 82 ± 7%. In addition, the minimal inhibitory concentration (MIC) against C. ammoniagenes (media MH), with C. ammoniagenes (media MH+DFO), in the test on C. ammoniagenes (media MH+DIP), against C. ammoniagenes (media MH+DIP+DFO), in the test with C. glutamicum and with C. diphteriae (media MH) was over 256 µM in each case. The MIC in the test on M. tuberculosis, in the test with E. coli, in the test with L. monocytogenes, in the test with P. aeruginosa, against S. thyphimurium and against S. aureus was over 256 µM in each case.

For the molecule `CSC(=NS(=O)(=O)c1c(C)noc1C)NNC(=O)Nc1ccc(Cl)cc1` [Compound C9, N1-(4-chlorophenyl)-2-[{[(3,5-dimethylisoxazol-4-yl)sulfonyl]imino}(methylthio)methyl]hydrazine-1-carboxamide], the “Tm shift of CaFADS thermal denaturation” value at CaFADS is recorded as “more than 3 degrees”. This molecule registered a Kd at CaFADS of 6.4 ± 1.2 µM. In addition, the “FMNAT % Res. act. 250 μM” value on FMNAT activity of CaFADS was 56 ± 6%. For the same molecule, the “RFK+FMNAT % Res. act. 250 μM” value in test [1] was 76 ± 3%. In addition, the MIC against C. ammoniagenes (media BHI) was over 64 µM; in the test on C. ammoniagenes (media MH), over 256 µM; against C. ammoniagenes (media MH+DFO), over 256 µM; in the test on C. ammoniagenes (media MH+DIP), over 256 µM; against C. ammoniagenes (media MH+DIP+DFO) it was over 256 µM; in the test on C. glutamicum, over 64 µM. Also, the MIC against C. diphteriae (media BHI) was over 64 µM; in the test with C. diphteriae (media MH) it was over 256 µM; against M. tuberculosis, over 256 µM; against M. smegmatis, over 256 µM; with S. pneumoniae (media BHI), over 256 µM; with S. pneumoniae (media MH), over 256 µM. For the same molecule, the MIC in the test on E. coli is recorded as over 64 µM; in the test with L. monocytogenes, over 64 µM; in the test on P. aeruginosa, over 256 µM; against S. thyphimurium, over 256 µM; against S. aureus, over 256 µM.

As for `O=C(NCCNc1ccc(C(F)(F)F)cc1[N+](=O)[O-])c1cccnc1Oc1ccccc1` [Compound C26, N-{2-[2-nitro-4-(trifluoromethyl)anilino]ethyl}-2-phenoxynicotinamide], the “FMNAT % Res. act. 250 μM” value at FMNAT activity of CaFADS came out at 72 ± 6%. For the same molecule, the “RFK+FMNAT % Res. act. 250 μM” value in test [1] is reported as 84 ± 4%. Moreover, the MIC in the test with C. ammoniagenes (media MH), against C. ammoniagenes (media MH+DFO), against C. ammoniagenes (media MH+DIP), against C. ammoniagenes (media MH+DIP+DFO), in the test with C. glutamicum and in the test on C. diphteriae (media MH) was over 256 µM in each case. Further, the MIC against M. tuberculosis, in the test on E. coli, in the test with L. monocytogenes, with P. aeruginosa, against S. thyphimurium and against S. aureus was over 256 µM throughout.

The record behind these values is paper PMC7449411, “In silico discovery and biological validation of ligands of FAD synthase, a promising new antimicrobial target” (PLoS Computational Biology, 2020).
